Laboratory results: patent publication US12364755B2, “Method for obtaining globally activated monocytes” (Transimmune AG, priority 2014, dated 2025)
No end group written: not given here.

Tests used:
Assay type in all cases: cell-based, human
[1] = test system: monocyte-platelet interactions; test: Monocyte-platelet interactions in flow (receptor-ligand studies); details: wall shear stress 0.5 dyne/cm2; relative to P+RGD+ maximum
Method: Platelet-coated Vena8 channels were pre-treated with either 40 μg/ml anti-P-selectin (R&D Systems) or 40 μg/ml of an isotype control for 30 minutes at room temperature, then washed with 5× the volume RPMI. Mononuclear cell suspensions were pre-treated with either RGD or DGR peptides at a concentration of 2.5 mM. Video samples lasting 400 frames (26.3 seconds) were recorded 60 seconds after commencement of flow using a lower power field of view spanning 400 microns and centered at 7500 microns from the flow start point.

[2] = test system: platelets; test: Platelet adhesion to fibrinogen-coated plates in flow after peptide pre-treatment of platelets; details: platelets (PRP) pre-incubated with peptide 2 mM, 20 minutes
Method: (§1) Platelet adhesion experiments were performed using the Vena8 flow chamber described above. Fibrinogen and fibronectin (Sigma) were dissolved in PBS to a final concentration of 200 mcg/ml. Channels of the Vena8 chips were incubated at room temperature in a humidified chamber for 2 hours with the protein solution, autologous plasma, or PBS alone. The channels were washed with 5x the volume RPMI. Platelet-rich-plasma was then perfused through the protein-coated channel at the indicated shear-stress, held constant. For each channel, still images were acquired exactly 90 seconds into the experiment at 4 pre-defined low power fields located along the flow path (fields were centered at 2500, 7500, 12500, and 17500 microns from the start point of infusion).
(§2) Some experiments involved pre-treating platelet-rich-plasma with protein fragments prior to infusion through the channels. Small RGD peptides, containing the amino-acid sequence Arg-Gly-Asp-Ser; DRG peptides, contain the amino-acid sequence Ser-Asp-Gly-Arg; or fragment 400-411 of fibrinogen, containing the amino-acid sequence His-His-Leu-Gly-Gly-Ala-Lys-Gln-Ala-Gly-Asp-Val, were incubated at a concentration of 2 mM with PRP for 20 minutes at room temperature. The PRP was then perfused through the channels as previously described.

[3] = test system: platelets; test: Platelet adhesion to fibronectin-coated plates in flow after peptide pre-treatment of platelets; details: platelets (PRP) pre-incubated with peptide 2 mM, 20 minutes
Method: as §1, §2

[4] = test system: lymphocytes; test: Apoptosis of ECP-processed lymphocytes after overnight incubation; details: UVA-activated 8-MOP
[5] = test system: lymphocytes; test: Apoptosis of lymphocytes (Annexin-V/7-AAD)
Method: Lymphocytes were treated with 8-MOP (100 ng/mL) and UVA (1 J/cm^2), washed with PBS, and co-cultured in complete media at 37° C. and 5% CO2 with either PUVA-treated or untreated-MoDC in a ratio of 5 or 10 lymphocytes to 1 MoDC. MoDC treated for 24 hr with 100 nM dexamethasone (Sigma) served as the positive control group. After 24 hr, cells were harvested and MoDC were re-purified.
(§3) Monoclonal antibodies included HLA-DR, CD80, CD83, CD3, CD86, CD14, CD11c and GILZ. Antibodies were obtained from Beckman-Coulter and eBioscience and were used at their pre-determined optimal dilutions. Apoptosis was assessed using the Annexin-V Apoptosis Detection Kit (eBioscience), with Annexin-V recognizing phosphatidylserine (PS) on the surface of apoptotic cells. 7-AAD substituted for PI as the cell viability dye. Cells displaying an Annexin-V^+/7-AAD^− phenotype were classified as early apoptotic cells, and cells displaying an Annexin-V^+/7-AAD^+ phenotype were classified as late apoptotic cells. Dual membrane and intracytoplasmic staining was performed using the lntraPrep fix and permeabilization kit (Beckman-Coulter). Background staining was established with appropriate isotype and fluorescence minus one controls. Immunofluorescence was analyzed using a FACSCalibur L (BD Biosciences) within 2 hr of fixation with 2% paraformaldehyde. A minimum of 10,000 events were collected for each group.

[6] = test system: CD11c+ MoDC; test: Apoptosis of CD11c+ MoDC (Annexin-V/7-AAD); details: 24 hr
Method: Cultures were incubated with 8-MOP (Uvadex, 20 μg/mL) for 30 min in the dark, and then irradiated with a desktop UVA light box containing a series of 12 linear fluorescent tubes. The tubes emitted UVA light ranging from 320 to 400 nm. The UVA irradiance (power, W/m^2) was measured using a photodiode. Given a measured irradiance and the absorption properties of the various components of the system, it was possible to determine the time (sec) needed to expose the cells to deliver a given dose of UVA radiation (J/cm^2).
as §3

[7] = test system: GILZ; test: GILZ mRNA expression in CD11c+ MoDC (real-time PCR); details: for GILZ up-regulation, fold change relative to untreated MoDC cultured alone: 24 hr after co-culture/treatment (FIG. 13B)
Method: The tubes emitted UVA light ranging from 320 to 400 nm. The UVA irradiance (power, W/m^2) was measured using a photodiode. […] Non-adherent cells (purity: 66.0±4.5% CD3^+) removed during plastic adherence will now be generally referred to as lymphocytes. […] RNA yield and purity were assessed using a NanoDrop ND-1000 spectrophotometer. cDNA was obtained using the High Capacity cDNA Reverse Transcription Kit (Applied Biosystems) in a 96-well thcrmocycicr (MJ Research PTC-200). TaqMan real-time PCR was used to detect transcripts of GILZ, CD80, and CD86. Primers and probes were obtained as pre-designed and validated Taqman Gene Expression Assays (Applied Biosystems). SYBR green real-time PCR (Applied Biosystems) was used to detect transcripts of IL-12, IL-10, IL-6, TNF-alpha, and TGF-β. Primers were designed to span intron junctions using Primer3Plus. Primer melting curves were obtained to confirm a single product. HPRT-1 and GAPDH were used as reference genes. Samples were run in triplicate on a 7500 Real Time PCR System (Applied Biosystems). The delta-delta C(t) method was used to calculate the fold change.

[8] = test system: platelets; test: Plasma protein influence on platelet adhesion to plates; details: plates pre-coated with protein; wall shear stress 0.2 to 6.0 dyne/cm^2
Method: as §1

[9] = test system: monocytes; test: Static co-culture of monocytes with platelets (DC differentiation); details: platelets activated with thrombin (2 units) vs not activated; 18 hours static culture
Method: When overnight culture was required, cells were centrifuged and resuspended in RPMI-1640 medium (GIBCO), supplemented with 15% AB serum (Gemini Bio-Products) to a final concentration of 5×10^6 cells/ml. Cells were cultured overnight for 18 hours in 12-well polystyrene tissue culture plates (2 ml per well) at 37° C. in 5% CO2.
Monoclonal antibodies for immunophenotyping included CD14 (LPS receptor; monocytes), CD11c (integrin subunit; monocytes and DC), HLA-DR (class II MHC molecule), CD83 (DC marker), CD62p (P-selectin; activated platelets), and CD61 (integrin subunit; platelets). Antibodies were obtained from Beckman Coulter (CD14, CD11c, HLADR, CD83) or Sigma (CD62p, CD61) and used at their pre-determined optimal dilutions. Background staining was established with appropriate isotype controls, and immunofluorescence was analyzed using a FC500 flow cytometer (Beckman Coulter). Two-color membrane staining was performed by adding the pre-determined optimal concentrations of both antibodies directly conjugated to FITC or PE and incubating for 20 min at 4° C., followed by washing to remove unbound antibodies. Combined membrane and cytoplasmic staining was performed following manufacturer's instructions for cell fixation and permeabilization (Intraprep kit, Beckman Coulter). […]

[10] = test system: GILZ; test: siRNA-mediated knockdown of GILZ in MoDC; details: siRNA experiments, ELISA
Method: Silencer select pre-designed and validated GILZ siRNA (Invitrogen), with off-target prediction algorithms, was used to knockdown GILZ expression. Mo-DC were transfected using Lipofectamine RNAiMAX Reagent (Invitrogen). RNAi duplex and lipofectamine reagent were incubated together for 20 min, then added to MoDC cultures and incubated for 2 hr at 37° C. and 5% CO2. Transfected MoDC were treated in an identical fashion as described for the MoDC/lymphocyte co-cultures. MoDC were also transfected with scramble siRNA.
RNA was isolated from CD11c MoDC using QIAShredder columns (QIAGEN) and the RNeasy Mini Kit (QIAGEN) with on-column Dnase I treatment (QIAGEN). RNA yield and purity were assessed using a NanoDrop ND-1000 spectrophotometer. cDNA was obtained using the High Capacity cDNA Reverse Transcription Kit (Applied Biosystems) in a 96-well thcrmocycicr (MJ Research PTC-200). TaqMan real-time PCR was used to detect transcripts of GILZ, CD80, and CD86. Primers and probes were obtained as pre-designed and validated Taqman Gene Expression Assays (Applied Biosystems). SYBR green real-time PCR (Applied Biosystems) was used to detect transcripts of IL-12, IL-10, IL-6, TNF-alpha, and TGF-β. Primers were designed to span intron junctions using Primer3Plus. Primer melting curves were obtained to confirm a single product. HPRT-1 and GAPDH were used as reference genes. Samples were run in triplicate on a 7500 Real Time PCR System (Applied Biosystems). The delta-delta C(t) method was used to calculate the fold change.
(§4) Culture supernatants were analyzed in a multiplex format utilizing magnetic beads to IL-6, IL-8, IL-10, IL-12p70, TNF-a, RANTES, MCP-1, and MIP-1β (BioRad Laboratories). For siRNA experiments, supernatants were analyzed with enzyme-linked immunosorbent assay (ELISA) kits for IL-10 (R&D Systems) and IL-12p70 (Enzo Life Science). All samples and standards were run in duplicate and analyzed using the LUMINEX 200 (LUMINEX), or the BioTek EL800 (BioTek).

[11] = test system: MoDC; test: Cytokine quantification in culture supernatants after LPS stimulation; details: for IL-10 to IL-12p70 ratio: after LPS stimulation, untreated MoDC 6.7
Method: Non-adherent cells (purity: 66.0±4.5% CD3^+) removed during plastic adherence will now be generally referred to as lymphocytes. Lymphocytes were treated with 8-MOP (100 ng/mL) and UVA (1 J/cm^2), washed with PBS, and co-cultured in complete media at 37° C. and 5% CO2 with either PUVA-treated or untreated-MoDC in a ratio of 5 or 10 lymphocytes to 1 MoDC. MoDC treated for 24 hr with 100 nM dexamethasone (Sigma) served as the positive control group. After 24 hr, cells were harvested and MoDC were re-purified.
as §4

[12] = 100 ng/mL 8-MOP and 1 J/cm^2 UVA, 24 hr
[13] = 24 hr after LPS stimulation, multiplex immunoassay

Arg-Gly-Asp-Ser (RGDS; printed: Arg-Gly-Asp-Ser) [RGD peptides]
short-duration monocyte-platelet interactions (less than 3 seconds) [1]: did not significantly alter
platelet adhesion to fibrinogen-coated plates [2]: not significantly altered
platelet adhesion to fibronectin-coated plates [3]: decreased adhesion significantly

COc1c2occc2cc2ccc(=O)oc12 [8-MOP, 8-methoxypsoralen]
ECP-processed lymphocytes apoptotic [4]: 99%
percentage of early apoptotic lymphocytes [5, 12]: 44.3%
percentage of late apoptotic lymphocytes [5, 12]: 33.7%
time after treatment at which lymphocytes display Annexin-V ([5]; 1 J/cm^2 and 100 ng/mL): 2 h
percentage of late apoptotic CD11c+ cells ([6]; 1 J/cm^2, all doses of 8-MOP tested): less than 13%
percentage of late apoptotic CD11c+ cells ([6]; 2 J/cm^2, all doses of 8-MOP tested): less than 16%
percentage of early apoptotic CD11c+ cells compared to untreated MoDC ([6]; 2 J/cm^2 and 200 ng/mL): increase
8-MOP concentration needed for an effect on GILZ expression ([7]; 0.5 J/cm^2 UVA): 200 ng/mL
time GILZ remained significantly elevated ([7]; 8-MOP and UVA light (FIG. 10F)): 72 h
GILZ expression increase, combination of 8-MOP and UVA light ([7]; 24 hr, relative to untreated MoDC (FIG. 10E)): 5.5 fold
GILZ expression, 8-MOP alone ([7]; without UVA light, 24 hr (FIG. 10E)): did not effect GILZ expression

fibrinogen
platelet adhesion to coated plates in flow [8]: highest concentrations of platelets adhered

HHLGGAKQAGDV
platelet adhesion to fibrinogen-coated plates [2]: significantly decreased
platelet adhesion to fibronectin-coated plates [3]: had no effect

thrombin
monocyte differentiation (cells expressing DC markers) [9]: did not cause a discernible difference

C[C@@H]1C[C@H]2[C@@H]3CCC4=CC(=O)C=C[C@]4(C)[C@@]3(F)[C@@H](O)C[C@]2(C)[C@@]1(O)C(=O)CO [dexamethasone]
time after treatment at which GILZ is up-regulated ([7]; 100 nM dex): 2 h
GILZ up-regulation, fold change relative to untreated MoDC cultured alone [7]: 4.29 fold
IL-10 to IL-12p70 ratio, non-transfected MoDC [10]: 15.3
IL-10 to IL-12p70 ratio, transfected with GILZ siRNA [10]: 3.9
IL-10 to IL-12p70 ratio [11]: 67.7

8-methoxypsoralen [8-MOP]
GILZ up-regulation, fold change relative to untreated MoDC cultured alone [7]: 2.78 fold
IL-10 to IL-12p70 ratio, non-transfected MoDC [10]: 8.4
IL-10 to IL-12p70 ratio, transfected with GILZ siRNA [10]: 2.9
production of IL-10 [11, 13]: increased production of IL-10
production of pro-inflammatory cytokines and chemokines [11, 13]: decreased production of all pro-inflammatory cytokines and chemokines tested, except TNF-α and IFN-γ
IL-10 to IL-12p70 ratio [11]: 38.7
